Data published in patent US5719169A, “Substituted benzoylguanidines, their use as a medicament or diagnostic, and medicament containing them” (priority 1993, dated 1998).
pIC50: −log10 of the molar value. Where a name gives a salt, the structure may show the parent alone.

Columns and labels:
[1] = molecular target: T1, Na^+ /H^+ exchanger of rabbit erythrocytes (Oryctolagus cuniculus, UniProt P23791); experiment: Inhibition of the Na^+ /H^+ exchanger of rabbit erythrocytes (amiloride-sensitive sodium influx, flame photometry); assay type: cell-based, rabbit (New Zealand White); conditions: pH 7.4, 37° C., hyperosmolar salt/sucrose medium
T1 construct: exchanger of rabbit erythrocytes; from tissue; host or cells: erythrocytes in blood of cholesterol-fed New Zealand White rabbits
From the text: Inhibition of the Na^+ /H^+ exchanger of rabbit erythrocytes
New Zealand White rabbits (Ivanovas) received a standard diet containing 2% cholesterol for six weeks in order to activate the Na^+ /H^+ exchange and thus to be able to determine, by flame photomerry, the Na^+ influx into the erythrocytes via Na^+ /H^+ exchange. The blood was removed from the aural arteries and rendered incoagulable using 25 IU of potassium heparin. A part of each sample was used for the duplicate determination of the hematocrit by means of centrifugation. Aliquots of in each case 100 μl were used for measuring the initial Na^+ content of the erythrocytes.
In order to determine the amiloride-sensitive sodium influx, 100 μl of each blood sample were in each case incubated, at pH 7.4 and 37° C., in 5 ml of a hyperosmolar salt/sucrose medium (mmol/1: 140 NaCl, 3 KCl, 150 sucrose, 0.1 ouabain, 20 tris(hydroxymethyl)aminomethane). The erythrocytes were then washed three times with ice-cold MgCl2 /ouabain solution ([…]: 112 MgCl2, 0.1 ouabain) and hemolyzed in 2.0 ml of distilled water. The intracellular sodium content was determined by flame photometry.
The net influx of Na^+ was calculated from the difference between the initial sodium values and the sodium content of the erythrocytes following incubation. The amiloride-inhibitable sodium influx was calculated from the difference in the sodium content of the erythrocytes following incubation with and without amiloride 3×10^-4 mol/1. This method was also employed in the case of the compounds according to the invention.

cardiac arrhythmias = conditions: cited from earlier work

T1 sequence (P23791 whole entry): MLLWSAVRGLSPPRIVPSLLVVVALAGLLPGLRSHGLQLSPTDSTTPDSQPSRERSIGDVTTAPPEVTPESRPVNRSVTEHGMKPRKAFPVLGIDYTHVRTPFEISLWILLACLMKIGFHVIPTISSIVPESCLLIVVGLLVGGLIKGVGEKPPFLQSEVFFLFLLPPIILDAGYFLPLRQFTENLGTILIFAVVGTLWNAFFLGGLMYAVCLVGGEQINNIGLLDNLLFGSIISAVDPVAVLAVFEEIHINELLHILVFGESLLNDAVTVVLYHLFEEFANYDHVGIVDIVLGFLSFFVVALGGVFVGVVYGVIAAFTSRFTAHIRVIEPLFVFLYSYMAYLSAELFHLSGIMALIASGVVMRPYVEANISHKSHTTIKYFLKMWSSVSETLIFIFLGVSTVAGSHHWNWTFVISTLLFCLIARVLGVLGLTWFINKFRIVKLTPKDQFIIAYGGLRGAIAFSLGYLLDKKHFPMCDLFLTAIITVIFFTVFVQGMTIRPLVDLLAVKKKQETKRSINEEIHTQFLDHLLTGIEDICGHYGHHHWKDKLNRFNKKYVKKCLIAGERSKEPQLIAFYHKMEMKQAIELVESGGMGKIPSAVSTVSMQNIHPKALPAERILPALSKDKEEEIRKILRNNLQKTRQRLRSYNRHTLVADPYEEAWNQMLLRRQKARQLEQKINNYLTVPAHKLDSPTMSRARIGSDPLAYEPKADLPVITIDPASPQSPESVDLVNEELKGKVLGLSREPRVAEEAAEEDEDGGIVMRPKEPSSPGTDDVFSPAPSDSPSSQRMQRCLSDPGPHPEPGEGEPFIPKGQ

Row | pIC50 [1] | SMILES | antiarrhythmic effect (cardiac arrhythmias; Circulation 79, 1257 to 1263 (1989)) | hypotensive and saluretic side effects (cardiac arrhythmias; in vivo)
1 | 6.70 | CS(=O)(=O)c1cc(C(=O)N=C(N)N)ccc1Oc1ccc(-c2cccnc2)cc1 [Example 3, 4-[4-(3-Pyridyl)phenoxy]-3-methylsulfonylbenzoylguanidine, dihydrochloride] |  | 
2 | 6.52 | CS(=O)(=O)c1cc(C(=O)N=C(N)N)ccc1Oc1ccc(-c2ccccn2)cc1 [Example 5, 4-[4-(2-Pyridyl)phenoxy]-3-methylsulfonylbenzoylguanidine, dihydrochloride] |  | 
3 | 6.52 | CS(=O)(=O)c1cc(C(=O)N=C(N)N)ccc1Oc1ccc(-c2nccn2Cc2ccccc2)cc1 [Example 1, 4-(1-Benzylimidazol-2-yl)phenoxy-3-methylsulfonylhenzoylguanidine, dihydrochloride] |  | 
4 | 6.52 | CS(=O)(=O)c1cc(C(=O)N=C(N)N)ccc1Oc1ccc(-c2ncc[nH]2)cc1 [Example 2, 4-(Imidazol-2-yl)phenoxy-3-methylsulfonylbenzoylguanidine, dihydrochloride] |  | 
5 |  | N=C(N)NC(=O)c1nc(Cl)c(N)nc1N [amiloride, Amiloride] | only weakly expressed | accompanied by hypotensive and saluretic effects
